Source: patent US10131652B2, “Pyrimidinyloxy benzene derivatives as herbicides” (E. I. DU PONT DE NEMOURS AND COMPANY, priority 2014, dated 2018)
Like-named read-outs stand apart in the source and are kept apart here.

Key:
Assay in all cases: Test D pre-/postemergence plant response
Type in all cases: in vivo
[1] = tested on: johnsongrass (Sorghum halepense); conditions: Sorghum halepense; for pest or weed control at 31 g/ha: 31 g ai/ha; for pest or weed control at 62 g/ha: 62 g ai/ha; for pest or weed control at 125 g/ha: 125 g ai/ha
Outline: (§1)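 Pre-/post-emergence greenhouse test. Pre: seeded loam+sand, sprayed same day. Post: 1–4 leaf plants (2–18 cm), peat/vermiculite mix. Formulation: non-phytotoxic solvent + surfactant. Scored visually d13–15, 0–100 vs control.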

[2] = tested on: lambsquarters (Chenopodium album); conditions: Chenopodium album; for pest or weed control at 31 g/ha: 31 g ai/ha; for pest or weed control at 62 g/ha: 62 g ai/ha; for pest or weed control at 125 g/ha: 125 g ai/ha
Outline: as §1

[3] = tested on: large (Lg) crabgrass (Digitaria sanguinalis); conditions: Digitaria sanguinalis; for pest or weed control at 16 g/ha: 16 g ai/ha; for pest or weed control at 31 g/ha: 31 g ai/ha; for pest or weed control at 62 g/ha: 62 g ai/ha; for pest or weed control at 125 g/ha: 125 g ai/ha
Outline: as §1

[4] = tested on: velvetleaf (Abutilon theophrasti); conditions: Abutilon theophrasti; for pest or weed control at 31 g/ha: 31 g ai/ha; for pest or weed control at 62 g/ha: 62 g ai/ha; for pest or weed control at 125 g/ha: 125 g ai/ha
Outline: as §1

[5] = tested on: winter wheat (Triticum aestivum); conditions: Triticum aestivum; for plant injury at 31 g/ha: 31 g ai/ha; for plant injury at 62 g/ha: 62 g ai/ha; for plant injury at 125 g/ha: 125 g ai/ha
Outline: as §1

[6] = post-emergence, Postemergence, scale 0 to 100, 0 no effect, 100 complete control, read-out: Plant response rating, Johnsongrass
[7] = pre-emergence, Preemergence, scale 0 to 100 (0 no effect, 100 complete control), read-out: Plant response rating, Johnsongrass
[8] = post-emergence, Postemergence, scale 0 to 100, 0 no effect, 100 complete control, read-out: Plant response rating, Lambsquarters
[9] = pre-emergence, Preemergence, scale 0 to 100 (0 no effect, 100 complete control), read-out: Plant response rating, Lambsquarters
[10] = post-emergence, Postemergence, scale 0 to 100 (0 no effect, 100 complete control), read-out: Crabgrass, Large plant response rating
[11] = post-emergence, Postemergence, scale 0 to 100, 0 no effect, 100 complete control, read-out: Plant response rating, Crabgrass, Large
[12] = pre-emergence, Preemergence, scale 0 to 100 (0 no effect, 100 complete control), read-out: Plant response rating, Crabgrass, Large
[13] = post-emergence, Postemergence, scale 0 to 100, 0 no effect, 100 complete control, read-out: Plant response rating, Velvetleaf
[14] = pre-emergence, Preemergence, scale 0 to 100 (0 no effect, 100 complete control), read-out: Plant response rating, Velvetleaf
[15] = post-emergence, Postemergence, scale 0 to 100, 0 no effect, 100 complete control, read-out: Plant response rating, Wheat
[16] = pre-emergence, Preemergence, scale 0 to 100 (0 no effect, 100 complete control), read-out: Plant response rating, Wheat

Fc1cccc(Oc2ncc(Cl)cn2)c1-c1cc(C(F)F)no1 [Compound 144, 5-chloro-2-[2-[3-(difluoromethyl)-5-isoxazolyl]-3-fluorophenoxy]pyrimidine]
pest or weed control at 31 g/ha ([1]; post-emergence, Postemergence, scale 0 to 100 (0 no effect, 100 complete control), read-out: Johnsongrass plant response rating): 10% | pest or weed control at 62 g/ha [1, 6]: 10% | pest or weed control at 125 g/ha [1, 6]: 50% | pest or weed control at 125 g/ha ([1]; pre-emergence, Preemergence, read-out: Plant response rating (scale 0 to 100), Johnsongrass): 100% | pest or weed control at 16 g/ha ([1]; pre-emergence, Preemergence, 16 g ai/ha, scale 0 to 100 (0 no effect, 100 complete control), read-out: Plant response rating, Johnsongrass): 20% | pest or weed control at 31 g/ha [1, 7]: 75% | pest or weed control at 62 g/ha [1, 7]: 100% | pest or weed control at 31 g/ha ([2]; post-emergence, Postemergence, scale 0 to 100 (0 no effect, 100 complete control), read-out: Lambsquarters plant response rating): 80% | pest or weed control at 62 g/ha [2, 8]: 90% | pest or weed control at 125 g/ha [2, 8]: 95% | pest or weed control at 125 g/ha ([2]; pre-emergence, Preemergence, read-out: Plant response rating (scale 0 to 100), Lambsquarters): 100% | pest or weed control at 16 g/ha ([2]; pre-emergence, Preemergence, 16 g ai/ha, scale 0 to 100 (0 no effect, 100 complete control), read-out: Plant response rating, Lambsquarters): 100% | pest or weed control at 31 g/ha [2, 9]: 100% | pest or weed control at 62 g/ha [2, 9]: 100% | pest or weed control at 16 g/ha [3, 10]: 5% | pest or weed control at 31 g/ha [3, 10]: 10% | pest or weed control at 62 g/ha [3, 11]: 15% | pest or weed control at 125 g/ha [3, 11]: 20% | pest or weed control at 125 g/ha ([3]; pre-emergence, Preemergence, read-out: Plant response rating (scale 0 to 100), Crabgrass, Large): 100% | pest or weed control at 16 g/ha [3, 12]: 90% | pest or weed control at 31 g/ha [3, 12]: 98% | pest or weed control at 62 g/ha [3, 12]: 100% | pest or weed control at 31 g/ha ([4]; post-emergence, Postemergence, scale 0 to 100 (0 no effect, 100 complete control), read-out: Velvetleaf plant response rating): 55% | pest or weed control at 62 g/ha [4, 13]: 75% | pest or weed control at 125 g/ha [4, 13]: 98% | pest or weed control at 125 g/ha ([4]; pre-emergence, Preemergence, read-out: Plant response rating (scale 0 to 100), Velvetleaf): 100% | pest or weed control at 16 g/ha ([4]; pre-emergence, Preemergence, 16 g ai/ha, scale 0 to 100 (0 no effect, 100 complete control), read-out: Plant response rating, Velvetleaf): 100% | pest or weed control at 31 g/ha [4, 14]: 100% | pest or weed control at 62 g/ha [4, 14]: 100% | plant injury at 31 g/ha ([5]; post-emergence, Postemergence, scale 0 to 100 (0 no effect, 100 complete control), read-out: Wheat plant response rating): 10% | plant injury at 62 g/ha [5, 15]: 10% | plant injury at 125 g/ha [5, 15]: 10% | plant injury at 125 g/ha ([5]; pre-emergence, Preemergence, read-out: Plant response rating (scale 0 to 100), Wheat): 25% | plant injury at 16 g/ha ([5]; pre-emergence, Preemergence, 16 g ai/ha, scale 0 to 100 (0 no effect, 100 complete control), read-out: Plant response rating, Wheat): 0% | plant injury at 31 g/ha [5, 16]: 5% | plant injury at 62 g/ha [5, 16]: 25%
